One data set concerns the target T1, P-gp (Homo sapiens, UniProt P08183).
T1 construct: expressed in transfected cells; host or cells: MDCK-MDR1 (Madin-Darby Canine Kidney cells, gift of Prof. P. Borst, NKI-AVL)
Kind of data set: Inhibition of Calcein-AM transport in MDCK-MDR1 cells. As to conditions: for EC50: Calcein-AM, MDCK-MDR1 cells, mean ± SEM of two experiments; for inhibition at 30 min, 10 µM: human, MDCK-MDR1 cells (overexpressing P-gp), probe Calcein-AM (2.5 µM), at 10 µM, read-out: P-gp maximum inhibition. It is filed as cell-based. The essentials: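 Confluent MDCK-MDR1 monolayers preincubated 30 min at 37 °C with compound (1 nM-100 µM), then 2.5 µM Calcein-AM (final) 30 min. After ice-cold PBS washes, fluorescence read (ex 485/em 535 nm); EC50 from % fluorescence increase over untreated basal versus log dose.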

A further data set addresses T2, BCRP (Homo sapiens, UniProt Q9UNQ0).
T2 construct: expressed in transfected cells; host or cells: MDCK-BCRP (Madin-Darby Canine Kidney cells, gift of Prof. P. Borst, NKI-AVL)
T2 sequence (Q9UNQ0 1-655): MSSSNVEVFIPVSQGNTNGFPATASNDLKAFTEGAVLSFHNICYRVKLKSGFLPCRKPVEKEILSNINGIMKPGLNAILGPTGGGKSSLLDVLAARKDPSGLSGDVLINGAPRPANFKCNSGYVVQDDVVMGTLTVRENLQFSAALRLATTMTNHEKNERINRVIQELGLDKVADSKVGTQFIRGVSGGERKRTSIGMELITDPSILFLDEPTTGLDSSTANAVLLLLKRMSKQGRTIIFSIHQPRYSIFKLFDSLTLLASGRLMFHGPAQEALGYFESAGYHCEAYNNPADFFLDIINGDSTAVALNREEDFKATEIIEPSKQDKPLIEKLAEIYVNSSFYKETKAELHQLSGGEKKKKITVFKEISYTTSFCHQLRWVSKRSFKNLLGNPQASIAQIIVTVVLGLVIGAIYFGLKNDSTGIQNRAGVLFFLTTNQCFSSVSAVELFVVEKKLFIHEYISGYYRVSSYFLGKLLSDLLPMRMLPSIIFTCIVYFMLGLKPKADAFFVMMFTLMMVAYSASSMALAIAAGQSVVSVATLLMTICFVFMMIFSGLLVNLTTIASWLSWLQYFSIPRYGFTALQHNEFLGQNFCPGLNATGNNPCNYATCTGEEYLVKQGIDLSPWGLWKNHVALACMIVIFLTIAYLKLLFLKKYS
Kind of data set: Inhibition of Hoechst 33342 efflux in MDCK-BCRP cells. It is filed as cell-based. As to conditions: for BCRP, percentage of the effect: at a concentration of 100 μM, MDCK-BCRP cells; for EC50: Hoechst 33342, MDCK-BCRP cells, NA: not active. On the procedure:
These experiments were carried out as described by Teodori et al.[34]. Each cell line (30 000 cells per well) was seeded into black CulturePlate 96/wells plate with 100 µL medium and allowed to become confluent overnight. 100 µL of test compounds were solubilised in culture medium and added to monolayers, with final concentrations ranging from 1 to 100 µM. 96/Wells plate was incubated for 30 min in a humidified atmosphere 5% CO2 at 37 °C. Hoechst 33342 was added in 100 µl of phosphate-buffered saline (PBS) to yield a final concentration of 8 µM and plate was incubated for 30 min in a humidified atmosphere 5% CO2 at 37 °C. The supernatants were drained, and the cells were fixed for 20 min under light protection using 100 µL per well of a 4% PFA solution. Each well was washed three times with ice cold PBS. Saline buffer was added to each well and the plate was read with Victor3 (PerkinElmer) at excitation and emission wavelengths of 340/35 nm and 485/20 nm, respectively. In these experimental conditions, Hoechst 33342 accumulation in the absence and in the presence of tested compounds was evaluated and fluorescence basal level was estimated with untreated cells. In treated wells, the increase of fluorescence with respect to basal level was measured. EC50 values were determined by fitting the fluorescence increase percentage versus log[dose]. […]

Data set [1] can be described thus: Stability test in human plasma (LC-MS/MS). The format is in vitro ADME. To be noted: human, human plasma, 1 µM, 37 °C. How it is done: Each sample was prepared adding 10 µL of working solution 1 to 100 µL of tested matrix (PBS or human plasma) in micro centrifuge tubes. The obtained solutions correspond to 1 µM of analyte.
After the incubation, the samples were added with 300 µL of ISTD solution and centrifuged (room temperature for 5 min at 10,000 rpm). The supernatants were transferred in auto sampler vials and dried under a gentle stream of nitrogen.
The dried samples were dissolved in 1.0 ml of 10 mM of formic acid in mQ water: acetonitrile 80:20 solution. The obtained sample solutions were analysed by LC-MS/MS methods described in Supplementary material.
For this purpose, a series of experiments were carried out, adding a known amount of analyte in both phosphate buffer solution (PBS) and in human plasma. The samples were analysed by LC-MS/MS method operating in Multiple Reaction Monitoring (MRM) mode[55].
The analyte concentration (1 µM) used during the stability tests is generally smaller than the corresponding Michaelis–Menten constant (KM); therefore, the enzymatic degradation rate is described by a first-order kinetic. Then, by plotting the natural logarithm of the quantitative data versus the incubation time, a linear function can be used and its slope represents the degradation rate (k).

Molecules are shown by their SMILES. Marks after values point to notes of the source that are not given here.

T1 sequence (P08183 whole entry): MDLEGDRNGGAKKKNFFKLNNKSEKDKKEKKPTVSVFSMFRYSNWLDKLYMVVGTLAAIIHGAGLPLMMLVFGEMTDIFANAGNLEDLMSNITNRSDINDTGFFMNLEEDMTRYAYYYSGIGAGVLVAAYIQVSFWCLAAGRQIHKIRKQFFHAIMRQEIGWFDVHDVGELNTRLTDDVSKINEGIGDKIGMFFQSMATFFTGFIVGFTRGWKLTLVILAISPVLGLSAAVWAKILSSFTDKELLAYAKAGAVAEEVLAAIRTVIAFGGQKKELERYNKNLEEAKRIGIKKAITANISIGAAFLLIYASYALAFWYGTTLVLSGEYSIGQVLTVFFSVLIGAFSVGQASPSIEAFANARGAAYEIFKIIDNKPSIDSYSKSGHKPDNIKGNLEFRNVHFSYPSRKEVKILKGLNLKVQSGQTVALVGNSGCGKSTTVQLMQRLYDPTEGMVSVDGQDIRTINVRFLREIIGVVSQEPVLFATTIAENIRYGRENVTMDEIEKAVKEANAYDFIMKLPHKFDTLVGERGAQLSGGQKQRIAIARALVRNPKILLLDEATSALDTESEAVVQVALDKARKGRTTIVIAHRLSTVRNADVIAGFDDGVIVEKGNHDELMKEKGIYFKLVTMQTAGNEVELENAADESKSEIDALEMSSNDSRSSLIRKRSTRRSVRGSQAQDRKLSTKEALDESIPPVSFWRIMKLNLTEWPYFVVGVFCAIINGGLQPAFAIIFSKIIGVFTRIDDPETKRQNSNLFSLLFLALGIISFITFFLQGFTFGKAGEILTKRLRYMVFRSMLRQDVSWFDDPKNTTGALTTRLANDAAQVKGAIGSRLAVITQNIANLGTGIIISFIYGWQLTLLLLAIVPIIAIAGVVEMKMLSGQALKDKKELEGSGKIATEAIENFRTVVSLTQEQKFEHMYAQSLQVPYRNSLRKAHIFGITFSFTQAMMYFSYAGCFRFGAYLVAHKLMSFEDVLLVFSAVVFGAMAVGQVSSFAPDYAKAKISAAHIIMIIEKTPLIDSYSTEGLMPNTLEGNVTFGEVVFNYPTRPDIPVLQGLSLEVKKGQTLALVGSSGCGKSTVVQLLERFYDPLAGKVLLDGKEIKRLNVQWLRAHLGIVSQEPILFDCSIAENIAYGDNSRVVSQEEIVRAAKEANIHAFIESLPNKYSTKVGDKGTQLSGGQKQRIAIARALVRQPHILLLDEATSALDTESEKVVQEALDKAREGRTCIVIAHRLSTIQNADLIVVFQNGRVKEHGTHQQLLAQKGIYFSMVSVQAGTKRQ

What is called EC50 is the concentration giving half of the maximal effect. A word on the half-life: it is how long it takes for the measured level to halve. Low values mean fast loss, high ones slow loss. Take `COc1cc2c(cc1OC)CN(CCc1ccc(OC(=O)c3c(OC)c(OC)cc4ccccc34)cc1)CC2` [Compound 21, 4–(2-(6,7-Dimethoxy-3,4-dihydroisoquinolin-2(1H)-yl)ethyl)phenyl 2,3-dimethoxy-1-naphthoate]: on P-gp, the 50% effective concentration (EC50) was 100 ± 20 nM. Besides, the “BCRP, percentage of the effect” value at BCRP came out at 43%^d. Also, the half-life at 1 µM in data set [1] is ≥ 4 h.

Turning to `COc1ccc(C(=O)Oc2ccc(CCN3CCc4cc(OC)c(OC)cc4C3)cc2)c(OC)c1` [Compound 16, 4–(2-(6,7-Dimethoxy-3,4-dihydroisoquinolin-2(1H)-yl)ethyl)phenyl 2,4-dimethoxybenzoate], the concentration for a half-maximal effect (EC50) at P-gp was 100 ± 20 nM; on BCRP, 11000 ± 2000 nM. Moreover, in data set [1], the half-life at 1 µM was determined as 1.47 ± 0.367 h.

For `COc1cc2c(cc1OC)CN(CCc1ccc(OC(=O)c3cccc(OC)c3OC)cc1)CC2` [Compound 18, 4–(2-(6,7-Dimethoxy-3,4-dihydroisoquinolin-2(1H)-yl)ethyl)phenyl 2,3-dimethoxybenzoate], the EC50 at P-gp is 340 ± 70 nM. For the same compound, the “BCRP, percentage of the effect” value at BCRP was 44%^d. The half-life at 1 µM in data set [1] came out at 0.9 ± 0.15 h.

As a reminder, the inhibition is how much of the control response was suppressed. `COc1ccc(C(=O)Nc2ccc(CCN3CCc4cc(OC)c(OC)cc4C3)cc2)c(OC)c1` [Compound 3, N-(4–(2-(6,7-dimethoxy-3,4-dihydroisoquinolin-2(1H)-yl)ethyl)phenyl)-2,4-dimethoxybenzamide]: the EC50 on P-gp was 40.5 ± 8 nM; at BCRP it was 1000 ± 200 nM. For the same compound, the inhibition at 30 min, 10 µM on P-gp was 90 to 95%. Besides, in data set [1], the half-life at 1 µM was ≥ 4 h.

Take `COc1cc2c(cc1OC)CN(CCc1ccc(NC(=O)c3ccc(OC)c(OC)c3OC)cc1)CC2` [Compound 1, N-(4–(2-(6,7-dimethoxy-3,4-dihydroisoquinolin-2(1H)-yl)ethyl)phenyl)-2,3,4-trimethoxybenzamide]: the concentration giving a half-maximal response (EC50) at P-gp is 530 ± 100 nM; at BCRP, 21200 ± 4200 nM. Further, the half-life at 1 µM in data set [1] is ≥ 4 h.

For `COc1cc2c(cc1OC)CN(CCc1ccc(NC(=O)c3c(OC)c(OC)cc4ccccc34)cc1)CC2` [Compound 8, N-(4–(2-(6,7-dimethoxy-3,4-dihydroisoquinolin-2(1H)-yl)ethyl)phenyl)-2,3-dimethoxy-1-naphthamide], at P-gp, the EC50 is 47.8 ± 9.3 nM and the inhibition at 30 min, 10 µM was 90 to 95%. Further, the half-life at 1 µM in data set [1] is ≥ 4 h.

With `COc1cc2c(cc1OC)CN(CCc1ccc(OC(=O)c3c(OC)ccc4ccccc34)cc1)CC2` [Compound 20, 4–(2-(6,7-Dimethoxy-3,4-dihydroisoquinolin-2(1H)-yl)ethyl)phenyl 2-methoxy-1-naphthoate], the concentration giving a half-maximal response (EC50) at P-gp is 110 ± 20 nM; at BCRP it was 7300 ± 1400 nM. Also, in data set [1], the half-life at 1 µM was ≥ 4 h.

Take `COc1cc2c(cc1OC)CN(CCc1ccc(OC(=O)c3ccccc3OC)cc1)CC2` [Compound 15, 4–(2-(6,7-Dimethoxy-3,4-dihydroisoquinolin-2(1H)-yl)ethyl)phenyl 2-methoxybenzoate]: at P-gp, the EC50 was 730 ± 140 nM. Moreover, the “BCRP, percentage of the effect” value at BCRP is 47%^d. In data set [1], this compound displayed a half-life at 1 µM of 1.05 ± 0.233 h.

For the compound `COc1cc2c(cc1OC)CN(CCc1ccc(OC(=O)c3ccc(OC)c(OC)c3OC)cc1)CC2` [Compound 14, 4–(2-(6,7-Dimethoxy-3,4-dihydroisoquinolin-2(1H)-yl)ethyl)phenyl 2,3,4-trimethoxybenzoate], the 50% effective concentration (EC50) was 360 ± 69 nM on P-gp and 15100 ± 2890 nM on BCRP. In addition, the half-life at 1 µM in data set [1] was ≥ 4 h.

Turning to `COc1cc2c(cc1OC)CN(CCc1ccc(OC(=O)c3cccc4ccccc34)cc1)CC2` [Compound 19, 4–(2-(6,7-Dimethoxy-3,4-dihydroisoquinolin-2(1H)-yl)ethyl)phenyl 1-naphthoate], the EC50 on P-gp is 840 ± 160 nM. The “BCRP, percentage of the effect” value on BCRP is on record as 35%^d. Moreover, in data set [1], the half-life at 1 µM is ≥ 4 h.

On to `COc1cc2c(cc1OC)CN(CCc1ccc(NC(=O)c3cccc(OC)c3OC)cc1)CC2` [Compound 5, N-(4–(2-(6,7-dimethoxy-3,4-dihydroisoquinolin-2(1H)-yl)ethyl)phenyl)-2,3-dimethoxybenzamide], for which, at P-gp, the EC50 is 260 ± 50 nM. In addition, at BCRP, the “BCRP, percentage of the effect” value amounted to 41%^d. Further, in data set [1], the half-life at 1 µM was ≥ 4 h.

The values above are taken from article PMC7178819, “6,7-Dimethoxy-2-phenethyl-1,2,3,4-tetrahydroisoquinoline amides and corresponding ester isosteres as multidrug resistance reversers” (Journal of Enzyme Inhibition and Medicinal Chemistry, 2020).
